Laboratory results taken from patent publication US11820745B2, “PKC-activating compounds for the treatment of neurodegenerative diseases” (Synaptogenix, Inc., priority 2008, dated 2023).

Columns and labels:
PKCε = molecular target: T1, PKCε (Homo sapiens, UniProt Q02156); test: Protein kinase C assay, purified/recombinant PKC epsilon (32P incorporation into histones); assay type: biochemical
T1 construct: purchased Calbiochem
T1 sequence (Q02156 1-737): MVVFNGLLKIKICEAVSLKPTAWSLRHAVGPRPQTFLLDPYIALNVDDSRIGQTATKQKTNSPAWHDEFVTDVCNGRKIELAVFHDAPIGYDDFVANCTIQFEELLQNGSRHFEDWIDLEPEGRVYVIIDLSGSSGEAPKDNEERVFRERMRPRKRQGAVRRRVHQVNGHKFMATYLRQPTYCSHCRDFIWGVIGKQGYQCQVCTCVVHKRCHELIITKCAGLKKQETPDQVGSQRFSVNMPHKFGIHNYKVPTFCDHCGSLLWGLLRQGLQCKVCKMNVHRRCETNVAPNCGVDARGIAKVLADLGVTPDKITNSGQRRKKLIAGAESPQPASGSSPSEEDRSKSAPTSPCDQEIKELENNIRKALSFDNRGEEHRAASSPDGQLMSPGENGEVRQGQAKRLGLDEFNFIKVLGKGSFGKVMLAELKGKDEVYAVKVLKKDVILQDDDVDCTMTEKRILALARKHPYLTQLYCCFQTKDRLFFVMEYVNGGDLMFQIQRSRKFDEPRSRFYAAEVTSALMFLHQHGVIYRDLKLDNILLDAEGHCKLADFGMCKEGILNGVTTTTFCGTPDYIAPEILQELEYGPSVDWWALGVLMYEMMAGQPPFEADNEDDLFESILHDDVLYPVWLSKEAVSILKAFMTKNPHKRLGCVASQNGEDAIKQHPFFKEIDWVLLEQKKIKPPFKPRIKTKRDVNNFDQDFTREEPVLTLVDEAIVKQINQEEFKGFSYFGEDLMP
Procedure: Protein kinase C assay. Recombinant PKC (1 ng of alpha or epsilon isofonn) was mixed with the BR-101 (UCP-LA) in the presence of 10 micromoiar histones, 5 mM CaCl2, 1.2 μg/μl phosphatidyl-L-serine, 0.18 μg/μl 1,2-dioctanoyl-sn-glycerol (DAG), […], […] (pH 7.4), 0.8 tnIVI EDTA, 4 mM EGTA, 4% glycerol, 8 μg/ml aprotinin, 8 μ/ml leupeptin, and 2 mM benzamidine. 0.5 micro Ci [^y32P]ATP was added. The incubation mixture was incubated for 15 min at 37 degrees in a total volume of 10 microliters. The reaction was stopped by spotting the reaction mixtures on 1×2 cm strips of cellulose phosphate paper (Whatman P81) and immediately washing twice for 1 hr in 0.5% H3PO4. The cellulose phosphate strips were counted in a scintillation counter. In some experiments, phosphatidylserine, diacylglycerol, and/or calcium were removed.
Protein kinase C assay. Rat hippocampal cells were cultured and scraped in 0.2 ml homogenization buffer (20 triM Tris-HCl, pH 7.4, 50 mM NaF, 1 μg/ml leupeptin, and 0.1 mM PMSF) and homogenized by sonication in a Marsonix micro-probe sonicator (5 see, 10W). To measure PKC, 10 ul of cell homogenate or purified. PKC isozyme (purchased from Calbiochem) was incubated for 15 min at 37° C. in the presence of 10 μM histones, 4.89 mM CaCl2, 1.2 μg/μl phosphatidyl-L-serine, 0.18 μg/μl 1,2-dioctanoyl-sn-glycerol, 10 mM MgCl2, 20 mM HEPES (pH 7.4), 0.8 mM EDTA, 4 mM EGTA, 4% glycerol, 8 μg/ml aprotinin, 8 μg/ml leupeptin, and 2 mM benzamidine. 0.5 μCi [^γ-32P]ATP was added and ^32P-phosphoprotein formation was measured by adsorption onto phosphocellulose as described previously. Nelson and Alkon, J. Neurochemistry. 1995; 65: 2350-57. For measurements of activation by BR-101 (DCP-LA) and similar compounds, PKC activity was measured in the absence of diacylglycerol and phosphatidyl serine, as described by Kanno et al., and PKC δ, ε, η, and μ were measured in the absence of added EGTA and CaCl2, as described by Kanno et al., J. Lipid Res. 2006; 47: 1146-50. Low concentrations of Ca^2+ are used because high Ca^2+ interacts with the PKC phosphatidylserine binding site and prevents activation. For measurements of bryostatin activation, 1,2-diacylglycerol was omitted unless otherwise stated.
To determine their PKC isozyme specificity, the new compounds were preincubated with purified PKC for five minutes and the PKC activity was measured radiometrically.

[1] = system: SH-SY5Y neuroblastoma cells; test: Cell survival and proliferation (alamar Blue, CyQuant) in SH-SY5Y neuroblastoma cells; assay type: cell-based, human; settings: for effect on proliferation: CyQuant staining, FIG. 11b; for effect on cell survival: alamar Blue, FIG. 11a
Procedure: AB Measurement and Cell Viability Assay. Aβ was measured using an Aβ1-42 human fluorimetric ELISA kit (Invitrogen) according to the manufacturer's instructions. Results were measured in a Biotek Synergy HT microplate reader. AlamarBlue and CyQuant NF (Invitrogen) according to the manufacturer's instructions.

TACE = TACE assay in N2a mouse neuroblastoma cells; assay type: cell-based; settings: FIG. 9a
Procedure: TACE Assay. TACE was measured by incubating 5 μl cell homogenate, 3 μl buffer (50 mM Tris-HCl 7.4 plus 25 mM NaCl plus 4% glycerol), and 1 of 100 μM TACE substrate IV (Aβz-LAQAVRSSSR-DPa) (Calbiochem) for 20 min at 37° in 1.5-ml polypropylene centrifuge tubes (Jin et al., Anal Biochem. 2002; 302: 269-75). The reaction was stopped by cooling to 4° C. The samples were diluted to 1 ml and the fluorescence was rapidly measured (ex=320 nm, em=420 nm) in a Spex Fluorolog 2 spectrofluorometer.

[2] = system: Endothelin-converting enzyme (ECE); test: ECE assay in SH-SY5Y neuroblastoma cells; assay type: cell-based, human; settings: bryostatin 0.27 nM, BR-101 1 μM, BR-111 1 μM; FIG. 10
Procedure: ECE assay. SH-S757 neuroblastoma cells were incubated with bryostatin (0.27 nM), BR-101 (PCP-LA) (1 μM), and BR-111 (DHA-CP6) (1 μM). Endothelin-converting enzyme (ECE) was measured fluorimetrically using the method of Johnson and Ahn, Anal. Biochem. 2000; 286: 112-118. A sample of cell homogenate (20 μl) was incubated in 50 mM MES-KOH, pH 6.0, 0.01% C12E10 (polyoxyethylene-10-tauryl ether), and 15 μM McaBK2. (7-Methoxycournarin-4-acetyl [Ala7-(2,4-Dinitrophenyl)Lys9]-bradykinin trifluoroacetate salt) (Sigma-Aldrich). After 60 min at 37° C., the reaction was quenched by adding trifluoroacetic acid to 0.5%. The sample was diluted to 1.4 ml with water and the fluorescence was measured at ex=334 nm, em=398 nm.

Row | Structure (SMILES) | activation of purified PKCε (PKCε; FIG. 3) | concentration needed to activate PKC, times lower than for BR-101 (DCP-LA) (PKCε; FIG. 3) | effect on proliferation [1] | effect on cell survival [1] | TACE activity (TACE) | ECE activity [2] | activation of PKCε (PKCε; at 10 μM, preincubated with purified PKC for five minutes) | activation of PKCε (PKCε; purified PKCε, lowest concentration tested (10 nM), FIG. 2)
1 | CCC1CC1CC1CC1CC1CC1CC1CC1CC1CC1CC1CC1CCC(=O)OC (stereo not drawn) [BR-111, methyl-3-(2-((2-((2-((2-((2-((2-ethylcyclopropyl)methyl)cyclopropyl)methyl)cyclopropyl)methyl)-cyclopropyl)methyl)cyclopropyl)methyl)cyclopropyl)propanoate] | activated purified PKCε to a similar extent | approx. 100 times | no effect | no effect | small increases | sustained increase | – | –
2 | CCCCCC1CC1CC1CC1CCCCCCCC(=O)O (stereo not drawn) [BR-101, 8-[2-(2-pentyl-cyclopropylmethyl)-cyclopropyl]-octanoic acid] | – | – | no effect | no effect | small increases | sustained increase | effective activator | 2.75 fold
